Test results published in patent publication US12265087B2, “Olfactory receptor as microglia marker and use thereof” (DAEGU GYEONGBUK INSTITUTE OF SCIENCE AND TECHNOLOGY, priority 2019, dated 2025).

Legend:
[1] = system: Hana3A cells expressing Olfr110; assay: Boyden chamber chemotaxis assay, Hana3A cells expressing Olfr110; type: cell-based; conditions: 2-PF 10, 100 and 1000 μM
Experimental: Chemotaxis was measured using a multi-well Boyden chamber. More specifically, a polycarbonate filter (8 μm pore; #101-8; Neuroprobe) was coated with […] fibronectin (Sigma-Aldrich) in PBS for 2 hours, and the coated filter was installed in a Boyden chamber. In addition, the bottom side of a plate was filled with serum-free DMEM containing 2-PF or a culture supernatant. Subsequently, microglia or Hana3A cells were transfected with an OR construct, and then suspended in serum-free DMEM. The microglia were kept at 37° C. for 4 hours, and the Hana3A cells for 8 hours. Cells that migrated to the bottom surface were fixed with 4% PFA, and stained with hematoxylin for 10 minutes. The migrated cells were counted under a light microscope in five randomly selected fixed […] fields (200×) using a scored eyepiece. A chemotaxis index was defined as the migrated cell number normalized against the untreated group.

primary microglia [2] = assay: Phagocytosis of FITC-dextran by primary microglia (FACS); type: cell-based, mouse; conditions: 100, 300 and 500 μM
Experimental: Primary microglia were seeded in 24-well plates (5×10^5 cells/well) and incubated for 24 hours. Cells were preincubated with 2-PF or Sup for 30 minutes, incubated with FITC-dextran (1 mg/ml, 20 mg/ml in PBS; #FD70S; Sigma Aldrich) in serum-free DMEM at 37° C. for […], and washed with PBS at 4° C. The cells were detached with 0.25% trypsin (#15090-046; Thermo Fisher Scientific) in PBS, and the detached cells were analyzed with FACS Accuri™ C6 (BD Biosciences). Mean fluorescence intensity (MFI) was calculated by integrating fluorescence histograms under each condition using the software. A phagocytosis index was defined as MFI, normalized against an untreated group.

[3] = Disease behavior: mouse mobility after IP injection; type: in vivo; conditions: 2-PF injection (IP), three concentrations
Experimental: It is known that an increase in disease behavior by microglial activation is due to an increase in secreted cytokines. To confirm the increase in disease behavior with the increase in cytokines, this experiment was conducted. The evaluation of disease behavior was accomplished after IP injection of Sup or 2-PF into the mice.
After IP injection, a mouse was placed in a space with four open sides (40×40×40 cm, white field, black wall), and the location of the mouse was recorded with a camera for 30 minutes, and then a moving distance thereof was calculated. Afterward, the data was plotted in a pseudo-color heat map using EthoVision XT (Noldus, Netherlands).

cerebral cortex = assay: Cytokine mRNA in the cerebral cortex after IP injection (qRT-PCR); type: in vivo, mouse; conditions: 2-PF injection
Source text: To measure mRNA, RNA was isolated from red blood cells, microglia, astrocytes, Hana3A cells or cerebral cortex cells using a MagNa lyser (Roche Molecular Diagnostics) with TRIzol reagent (Invitrogen, Carlsbad, Calif.) according to the manufacturer's protocols. Afterward, cDNA was synthesized through reverse transcription using isolated mRNA (using PrimeScript™ 1st str and cDNA Synthesis kit-#6110; Takara Bio Inc.). This process was quantitatively measured in real time through quantitative real-time-PCR (using a LightCycler® 480 SYBR Green I Master). The measurement values were calculated using a 2-ΔΔCt method.

microglia = assay: Ex vivo phagocytosis of microglia in brain slices (time-lapse confocal imaging); type: cell-based, mouse; conditions: brain slices of CX3CR1 GFP/+ mice
Experimental: In this experiment, to examine the phagocytotic action of microglia, the brain of a 9-week-old male CX3CR1^GFP/+ mouse was sliced to a thickness of 150 μm using a vibratome (Leica VT1200), and stored in a ice-cooled artificial cerebrospinal fluid (aCSF: 120 mM NaCl, 25 mM NaHCO3, 1.25 mM NaH2PO4, 5 mM KCl, 1 mM CaCl2, 1 mM MgSO4, […], pH7.4). Afterwards, the sliced brain was incubated to remove cell debris. Oxygen-treated aCSF was pretreated in a perfusion chamber at 37° C. for 2 hours. Subsequently, before incubation, the sliced brain was incubated with 500 μl of aCSF containing 9.10×10^7 microspheres (360/407 […]; #17458; Polysciences), and covered with a customized nylon grid. Time lapse videos were recorded every minute for 92 minutes using a confocal microscope. The number of phagocytosing microglia was counted from the images.

primary microglia [4] = assay: Western blotting of phosphorylated signaling proteins in primary microglia; type: cell-based, mouse; conditions: 0-30 min after treatment
Experimental: Cells and tissue were prepared using the T-PER® reagent (#78510; Thermo Fisher Scientific) containing protease inhibitors (#04-693-116-001; Roche Molecular Diagnostics) and DMSF (Sigma-Aldrich), and then lysed using a MagNA lyser (Roche Molecular Diagnostics). A total protein extract was quantified by the Bradford assay. The samples were dissolved in 7.5% SDS-PAGE or 4-20% gradient mini-PROTEIN TGX Precast Gels (#456-1064; Bio-Rad Laboratories), and then blotted on nitrocellulose membranes (#10600002; GE Healthcare). Afterward, the membranes were blocked for 1 hour in 5% non-fat dry milk and TBST, 0.1% TWEEN® 20 (#P9416; Sigma-Aldrich), and Tris-buffered saline, and then incubated with primary antibodies at 4° C. overnight. The antibodies were as follows: Olfr110 (36 kDa; 1:1,000; #ab177327; Abcam), anti-rhodopsin (39 kDa; 1:1,000; #MABN15; Millipore), CREB (43 kDa; 1:1,000; #9197; Cell Signaling Technology), phospho-CREB (43 kDa; 1:1,000; #9198; Cell Signaling Technology), ERK (44 kDa; 1:1,000; #sc094; Santa Cruz), phospho-ERK (42, 44 kDa; 1:1,000; #sc-7383; Santa Cruz), phospho-Akt (60 kDa; 1:500; sc-293125; Santa Cruz), phospho-JNK (46, 54 kDa; 1:500; sc-6254; Santa Cruz), phosphor-p38 (38 kDa; 1:1,000; sc-7973; Santa Cruz), and beta-Actin (45 kDa; 1:10,000; #4967; Cell Signaling Technology). In addition, as isotype-matched horseradish peroxidase-conjugated secondary antibodies, anti-rabbit IgG (#711-035-152; Jackson ImmunoResearch) diluted 1:100,000, and anti-mouse IgG (#715-035-150; Jackson ImmunoResearch) diluted 1:40,000 in TBST were used at room temperature for 2 hours. Immunoreactive protein bands were obtained using SuperSignal™ West Pico Chemiluminescent Substrate (#34080; Thermo Fisher Scientific).

CCCCCc1ccco1 [2-PF, 2-pentylfuran]
mobility of Olfr110 cells (chemotaxis assay) [1]: increased in mobility in a concentration-dependent manner
phagocytosis (primary microglia [2]): significantly increased in a concentration-dependent manner
mouse mobility [3]: concentration-dependent decrease
expression level of inflammatory cytokines (Tnf, Il6, Il1b, Il10) (cerebral cortex): significantly increased
activity of phagocytosis of microglia ex vivo (microglia): increased
phosphorylation levels of ERK, p38, JNK and Akt (primary microglia [4]): increased from 2 minutes and stopped increasing at 20 minutes
